Test results taken from PMC7747700, “Enantiomer-specific activities of an LRH-1 and SF-1 dual agonist” (Scientific Reports, 2020).

B1: peptide corresponding to the NR Box 3 of the Tif2 coactivator (peptide)
peptide: KENALLRYLLDKDDT
notes: source: synthetic peptide (RS Synthesis)

Key:
H390A-LRH-1 = target: T1, H390A-LRH-1 (Homo sapiens, UniProt O00482, H390A); parameters: method as in PMID 27694446; details: cited from earlier work
T1 construct: expressed in transfected cells; host or cells: Hela cells
T1 sequence (O00482 whole entry H390A): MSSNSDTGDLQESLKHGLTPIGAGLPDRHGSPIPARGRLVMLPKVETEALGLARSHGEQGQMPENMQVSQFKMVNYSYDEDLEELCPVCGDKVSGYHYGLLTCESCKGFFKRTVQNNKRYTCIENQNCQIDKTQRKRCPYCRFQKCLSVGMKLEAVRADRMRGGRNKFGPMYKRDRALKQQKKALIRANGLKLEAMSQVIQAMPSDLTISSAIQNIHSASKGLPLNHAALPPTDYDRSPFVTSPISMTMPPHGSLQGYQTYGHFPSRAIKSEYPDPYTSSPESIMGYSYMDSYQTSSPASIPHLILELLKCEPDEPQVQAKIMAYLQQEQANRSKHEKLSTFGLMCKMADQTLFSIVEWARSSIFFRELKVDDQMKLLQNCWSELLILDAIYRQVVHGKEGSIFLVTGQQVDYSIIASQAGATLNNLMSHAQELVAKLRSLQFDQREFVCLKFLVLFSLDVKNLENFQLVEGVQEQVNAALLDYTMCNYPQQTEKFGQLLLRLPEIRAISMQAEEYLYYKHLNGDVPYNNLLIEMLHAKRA

[1] = target: T2, Liver receptor homolog-1 (LRH-1) ligand binding domain (UniProt O00482 299-541); test: crystal structure; LRH-1 LBD (His-tag cleaved) saturated with SS-RJW100, combined with the Tif2 NR Box 3 peptide, 6 mg/ml; hanging drop vapor diffusion at 18 °C with microseeding; 0.05 M sodium acetate pH 4.6, 5–11% PEG4000; details: both partners purified
T2 construct: also called LRH-1 LBD
T2 sequence (O00482 299-541): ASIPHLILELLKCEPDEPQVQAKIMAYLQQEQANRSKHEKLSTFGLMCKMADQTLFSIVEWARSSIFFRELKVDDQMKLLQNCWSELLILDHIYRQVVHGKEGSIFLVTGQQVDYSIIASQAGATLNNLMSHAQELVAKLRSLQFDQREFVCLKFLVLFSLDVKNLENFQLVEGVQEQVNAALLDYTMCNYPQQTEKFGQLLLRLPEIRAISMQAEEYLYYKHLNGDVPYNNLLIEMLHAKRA

| Molecule | activation of H390A-LRH-1 (H390A-LRH-1) | binding result [1] |
| --- | --- | --- |
| CCC/C=C(\CCC)C1=C(c2ccccc2)[C@]2(Nc3ccccc3)CCC[C@@H]2C1 [GSK8470] | cannot activate |  |
| B1 |  | binds |
